According to patent US20090312556A1, “N-(2-AMINIPHENYL)-4-(5-((ETHYLAMINO)METHYL)-1,2-THIAZOL-2-YL) BENZAMIDE AND N-(2-AMINOPHENYL)-4-(5-((ISOPROPYLAMINO)METHYL)-1,2-THIAZOL-2-YL) BENZAMIDE AS HDAC INHIBITORS” (ASTRAZENECA R& D ALDERLY, priority 2004, published 2009):

How the values were obtained:
HCT116 cells = assay: In vitro assay of inhibition of proliferation in whole cells (MTS); type: cell-based; conditions: Homo sapiens, HCT-116, 72 hours, read-out: IC50 (nM) Test (b) (In vitro assay for the inhibition of whole cell proliferation)
Procedure: Inhibition of proliferation in whole cells was assayed using the Promega cell titer 96 aqueous proliferation assay (Promega #G5421). HCT116 cells were seeded in 96 well plates at 1×10^3 cells/well, and allowed to adhere overnight. They were treated with inhibitors for 72 hours. 20 μl of the tetrazolium dye MTS was added to each well and the plates were re-incubated for 3 hours. Absorbance was then measured on a 96 well plate reader at […]. The IC50 values for HDAC inhibitors were determined by performing dose response curves with individual compounds and determining the concentration of inhibitor producing fifty percent decrease in the maximal signal (diluent control).

recombinant human HDAC1 = target: T1, recombinant human HDAC1 (Homo sapiens, UniProt Q13547); assay: In vitro enzyme assay of recombinant HDAC1; type: biochemical; conditions: recombinant human HDAC1, acetylated histone H4 peptide; read-out: IC50 (nM) Test (a) (In vitro assay for the inhibition of HDAC1)
T1 construct: FLAG (C); made in house; host or cells: Hi5 insect cells
T1 sequence (Q13547 whole entry): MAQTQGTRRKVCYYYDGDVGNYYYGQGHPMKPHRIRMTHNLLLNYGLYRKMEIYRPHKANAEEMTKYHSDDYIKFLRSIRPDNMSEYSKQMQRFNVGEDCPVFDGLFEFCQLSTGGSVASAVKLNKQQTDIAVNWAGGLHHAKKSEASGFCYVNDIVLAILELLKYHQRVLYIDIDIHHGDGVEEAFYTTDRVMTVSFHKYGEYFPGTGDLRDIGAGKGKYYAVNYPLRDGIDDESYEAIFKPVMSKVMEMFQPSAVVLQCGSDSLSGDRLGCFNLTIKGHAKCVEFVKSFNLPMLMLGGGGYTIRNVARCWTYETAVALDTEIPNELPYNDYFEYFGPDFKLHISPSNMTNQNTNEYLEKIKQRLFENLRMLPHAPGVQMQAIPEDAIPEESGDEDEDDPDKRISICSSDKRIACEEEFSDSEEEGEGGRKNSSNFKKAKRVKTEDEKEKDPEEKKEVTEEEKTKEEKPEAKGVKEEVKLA
Procedure: HDAC inhibitors were screened against recombinant human HDAC1 produced in Hi5 insect cells. The enzyme was cloned with a FLAG tag at the C-terminal of the gene and affinity purified using Anti-FLAG M2 agarose from SIGMA (A2220).
The deacetylase assays were carried out in a 50 μl reaction. HDAC1 (75 ng of enzyme) diluted in 15 μl of reaction buffer (25 mM TrisHCl (pH 8), 137 mM NaCl, 2.7 mM KCl, 1 mM MgCl2) was mixed with either buffer alone (10 μl) or buffer containing compound (10 μl) for 30 minutes at ambient temperature. 25 μM acetylated histone H4 peptide (KI 174 Biomol) diluted in 25 μl of buffer was then added to the reaction and incubated for one hour at ambient temperature. The reaction was stopped by addition of an equal volume (50 μl) of Fluor de Lys developer (Biomol) containing Trichostatin A at 2 μM. The reaction was allowed to develop for 30 minutes at ambient temperature and then fluorescence measured at an excitation wavelength of 360 nm and an emission wavelength of 465 nm. IC50 values for HDAC enzyme inhibitors were determined by performing dose response curves with individual compounds and determining the concentration of inhibitor producing fifty percent decrease in the maximal signal (diluent control).

IC50 (HCT116 cells): 183 nM
IC50 (recombinant human HDAC1): 29 nM
SMILES: CC(C)NCc1cnc(-c2ccc(C(=O)Nc3ccccc3N)cc2)s1 [Example 1, N-(2-aminophenyl)-4-{5-[(isopropylamino)methyl]-1,3-thiazol-2-yl}benzamide]
